Laboratory results from PMC4718634, “Murine GPRC6A Mediates Cellular Responses to L-Amino Acids, but Not Osteocalcin Variants” (PLoS ONE, 2016).

Assays:
GLUTag cells = details: endogenous; ref [17] (supplement list); cited from earlier work
From the text: (§1) Supplement pone.0146846.s004.docx, table 1 | column: Functional assay

MIN6 or βTC6 cells = assay: Insulin release, MIN6 or βTC6 cells (summary table); format: cell-based, murine; details: S1 Table
Protocol: MIN6 or βTC-6 cells were seeded in 24-well plates at 170,000 cells per well in DMEM (containing 4.5g/L glucose, 10 mM HEPES, 100 U/ml penicillin, 100 μg/ml streptomycin and 15% de-complemented FBS) and incubated at 37°C / 5% CO2 for 72 h. Cells were then washed with 500 μl PBS and incubated in 500 μl deprivation media (DMEM with zero glucose, 10 mM HEPES, 1 mM Na-pyruvate, 100 U/ml penicillin, 100 μg/ml streptomycin, 15% de-complemented FBS) for 2 h at 37°C. Media was aspirated and after washing with 500 μl PBS, cells were treated with 250 μl of Krebs buffer (250 mM NaCl, 5.9 mM KCl, 1.2 mM MgCl2, 1.3 mM CaCl2, 25 mM HEPES, 0.1% BSA (w/v), and 2 mM or 16.7 mM glucose; pH 7.4) in the presence or absence of test compound. After incubation for 2 h at 37°C, the assay was terminated by placing the plates on ice and supernatants were transferred to a 96-well plate in preparation for insulin ELISA (Alpco) following manufacturer’s instructions. The cell monolayer was washed twice with 500 μl of PBS and then lysed using 250 μl of 1 N NaOH prior to protein measurement by the method of Bradford (1976).

[1] = tested on: GPRC6A-expressing cell lines or mouse pancreatic islets; details: ref [31]; cited from earlier work
From the text: (§2) The involvement of GPRC6A has been shown by transfection of receptor-specific siRNA, receptor blockade with a polyclonal antibody and, in the case of the islets, using tissue from KO mice.

GPRC6A [2] = details: GPRC6A-expressing cell lines or mouse pancreatic islets; ref [29]; cited from earlier work
From the text: as §2

22RV1 / PC-3 = details: endogenous; ref [9] (supplement list); cited from earlier work
From the text: as §1

22RV1 = details: endogenous, cited from earlier work
From the text: as §1

3T3-L1 adipocytes = details: endogenous; ref [16] (supplement list); cited from earlier work
From the text: as §1

GPRC6A [3] = details: ref [6] (supplement list); cited from earlier work
From the text: as §1

MA-10 Leyding cells = details: endogenous; ref [15] (supplement list); cited from earlier work
From the text: as §1

MC3T3-E1 = details: endogenous; ref cell of this line empty; cited from earlier work
From the text: as §1

TC6 = details: endogenous; ref [11] (supplement list); cited from earlier work
From the text: as §1

TM3 Leydig cells = details: endogenous; ref [12] (supplement list); cited from earlier work
From the text: as §1

Unknown species GPRC6A = details: ref [11] (supplement list); cited from earlier work
From the text: as §1

hC6A = details: ref [9] (supplement list); cited from earlier work
From the text: as §1

## NCCC[C@H](N)C(=O)O [L-ornithine]
GLUTag cells
  GLP-1 secretion response: response

## OCN: osteoblast-derived peptide, osteocalcin; variant not specified at the place (YLYQWLGAPVPYPDPLEPRREVCELNPDCDELADHIGFQEAYRRFYGPV; UniProt P02818 52-100, looked up)
MIN6 or βTC6 cells
  Insulin release (summary): Insulin release – response to L-aa. No response to OCN
[1]
  β-cell proliferation: increased β-cell proliferation
GPRC6A [2]
  intracellular calcium mobilisation: cause intracellular calcium mobilisation
22RV1 / PC-3
  PSA, Runx2 expression response: pERK1/2 – response to Ca^2+, ZnCl2, OCN, Arginine, Testosterone-BSA Proliferation – response to Ca^2+, OCN PSA, Runx2 expression – response to OCN, Arg, R1881 Chemotaxis (22RV1) – response to Ca^2+, OCN
  Proliferation response: pERK1/2 – response to Ca^2+, ZnCl2, OCN, Arginine, Testosterone-BSA Proliferation – response to Ca^2+, OCN PSA, Runx2 expression – response to OCN, Arg, R1881 Chemotaxis (22RV1) – response to Ca^2+, OCN
  pERK1/2 response: pERK1/2 – response to Ca^2+, ZnCl2, OCN, Arginine, Testosterone-BSA Proliferation – response to Ca^2+, OCN PSA, Runx2 expression – response to OCN, Arg, R1881 Chemotaxis (22RV1) – response to Ca^2+, OCN
22RV1; ref [9] (supplement list)
  Chemotaxis (22RV1) response: pERK1/2 – response to Ca^2+, ZnCl2, OCN, Arginine, Testosterone-BSA Proliferation – response to Ca^2+, OCN PSA, Runx2 expression – response to OCN, Arg, R1881 Chemotaxis (22RV1) – response to Ca^2+, OCN
22RV1; ref [10] (supplement list)
  Proliferation response: pERK1/2 – response to Testosterone-BSA, Proliferation – response to Ca^2+, OCN, Testosterone-BSA
3T3-L1 adipocytes
  Adiponectin, PPARγ expression response: cAMP – response to OCN pERK1/2 – response to OCN pCREB – response to OCN Adiponectin, PPARγ expression – response to OCN
  cAMP response: cAMP – response to OCN pERK1/2 – response to OCN pCREB – response to OCN Adiponectin, PPARγ expression – response to OCN
  pCREB response: cAMP – response to OCN pERK1/2 – response to OCN pCREB – response to OCN Adiponectin, PPARγ expression – response to OCN
  pERK1/2 response: cAMP – response to OCN pERK1/2 – response to OCN pCREB – response to OCN Adiponectin, PPARγ expression – response to OCN
GPRC6A [3]
  SRE-reporter gene response: pERK1/2 – response to Ca^2+, Mg^2+, Gd^3+, Al^3+, NPS R568 SRE-reporter gene – response to CaCl2, SrCl2, MgCl2, GdCl3 and OCN
MA-10 Leyding cells
  Ca^2+i response: response
  Release of 25-OH-Vit D or Testosterone: response
  cAMP response: no response
MC3T3-E1
  SRE-reporter gene response: SRE-reporter gene – response to OCN
TC6
  pERK1/2, pPKD1 response: pERK1/2, pPKD1 – response to OCN, L-Arg
TM3 Leydig cells
  Ca2+i response: negative
  cAMP response: response
  pCREB response: response
  pERK1/2 response: negative
Unknown species GPRC6A
  pERK1/2 response: pERK1/2 - response to Ca^2+, L-Arg, OCN.
hC6A
  pERK1/2 response: pERK1/2 – response to Ca^2+, ZnCl2, OCN, Arginine, Testosterone-BSA
